Measured values reported in patent publication US4117133A, “Vasodilating cuanzine hydrazides” (Inverni Della Beffa S.p.A., priority 1975, dated 1978).
≈ marks a conversion by molar mass, not a printed value. Where a name gives a salt, the structure may show the parent alone.

What was measured:
[1] = tested on: isolated ileum of guinea pigs; assay: Spasmolytic activity on the isolated ileum of guinea pigs (acetylcholine-induced spasm); conditions: limits in parentheses, contact time spasmogenic 1 min, spasmolytic 3 min, interval between administrations 5 min; for IC50: Cavia porcellus, 0.05 h, read-out: ED50 and base limits on spasm induced by 100 mg/ml of acetylcholine
Description: (1) (1) induced by 100 mg/ml of acetylcholine
(1) The time of contact of the spasmogenic and spasmolytic substances was
1 and 3 minutes, respectively.
The interval between the administrations was 5 minutes.

[2] = tested on: anaesthetized mongrel dogs; assay: Haemodynamic activities in anaesthetized dogs; type: in vivo; parameters: key to Flow coronary / Flow femoral / Contractive power of heart: +++: intense increase; ++: moderate increase; +: faint increase; =: no change; conditions: intravenous; for Arterial pressure Average variation carotid / Arterial pressure Average variation femoral / Contractive power of heart / Flow coronary / Flow femoral: one twentieth of the LD50: cuanzine HCl 8, hydrazide bitartrate 10, 21-epicuanzine HCl 5, apocuanzine HCl 2.5, dimethylaminoethyl ester 10 mg/kg
Description: The products under investigation were administered intravenously to anaesthetized mongrel dogs in doses which were in proportion to the lethal dose (one twentieth of the LD50).
The average of the carotid and femoral arterial pressures, the […] coronary and femoral flow rates and the contractive power of the heart were measured and the results are shown in Table I.

Row | Molecule | ED50 and base limits on spasm induced by 100 mg/ml of acetylcholine [1] | Arterial pressure Average variation carotid [2] | Arterial pressure Average variation femoral [2] | Contractive power of heart [2] | Flow coronary [2] | Flow femoral [2] | IC50 [1] | haemodynamic activity compared with cuanzine (in words) ([2]; anaesthetized dogs, one twentieth of the LD50)
1 | 21-epicuanzine | 37 (68.8 - 19.9) γ/ml | – | – | – | – | – | – | –
2 | COC(=O)[C@]1(O)C[C@]23CCO[C@H]2CCN2CCc4c(n1c1c(OC)cccc41)[C@H]23 [21-epicuanzine hydrochloride, 21-Epicuanzine (A=β-H,B = CO2 Me, C=OH,D=H) hydrochloride] | – | -20 mm Hg | -20 mm Hg | = | ++ | + | – | –
3 | COC(=O)C1=C[C@]23CCO[C@H]2CCN2CCc4c(n1c1c(OC)cccc41)[C@@H]23 [Apocuanzine hydrochloride, Apocuanzine] | – | -15 mm Hg | -15 mm Hg | + | +++ | + | – | –
4 | COC(=O)C1=C[C@]23CCO[C@H]2CCN2CCc4c(n1c1c(OC)cccc41)[C@@H]23 [Apocuanzine] | – | – | – | – | – | – | 26.5 µg/mL (≈ 69.7 µM) | –
5 | COc1cccc2c3c([nH]c12)[C@H]1N(CC3)CC[C@@H]2OCC[C@@]21CC(=NN)C(=O)NN [Cuanzine hydrazide bitartrate] | – | -30 mm Hg | -30 mm Hg | + | +++ | ++ | 74 µg/mL | –
6 | COC(=O)[C@]1(O)C[C@]23CCO[C@H]2CCN2CCc4c(n1c1c(OC)cccc41)[C@@H]23 [Cuanzine hydrochloride, reference compound] | – | -10 mm Hg | -10 mm Hg | = | ++ | + | 120 µg/mL | –
7 | COc1cccc2c3c4n(c12)[C@](O)(C(=O)OCCN(C)C)C[C@]12CCO[C@H]1CCN(CC3)[C@H]42 [N,N-dimethylaminoethyl nor-cuanzinate] | – | -10 mm Hg | -10 mm Hg | = | ++ | + | – | as active as cuanzine
